Experimental data taken from the supplement of paper PMC10307832.

Columns and labels:
Assay in all cases: relative viability (nuclei count vs DMSO), 5 days (fraction); higher = more cells survive
Pemetrexed + Decitabine = compound: Nc1nc2[nH]cc(CCc3ccc(C(=O)N[C@@H](CCC(=O)O)C(=O)O)cc3)c2c(=O)[nH]1 [Pemetrexed] + Nc1ncn([C@H]2C[C@H](O)[C@@H](CO)O2)c(=O)n1 [Decitabine] (partner 2 µM)
Outline: (§1)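 Lung cancer cell lines were pin-tool dosed in 1536-well plates on the day after seeding, with either a lone drug or a fixed anchor-drug dose plus five library-drug doses (not always all listed) in √10 steps. Nuclei were counted on 4× images after 5 days. Relative viability is the ratio of treated-well to vehicle-well nuclei counts, with each value a median of duplicate plates.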

Idelalisib + Vorinostat = compound: CC[C@H](Nc1ncnc2[nH]cnc12)c1nc2cccc(F)c2c(=O)n1-c1ccccc1 [Idelalisib] + O=C(CCCCCCC(=O)Nc1ccccc1)NO [Vorinostat] (partner 1 µM)
Outline: as §1

Idelalisib + Trametinib = compound: CC[C@H](Nc1ncnc2[nH]cnc12)c1nc2cccc(F)c2c(=O)n1-c1ccccc1 [Idelalisib] + CC(=O)Nc1cccc(-n2c(=O)n(C3CC3)c(=O)c3c(Nc4ccc(I)cc4F)n(C)c(=O)c(C)c32)c1 [Trametinib] (partner 0.02 µM)
Outline: as §1

Idelalisib + Navitoclax = compound: CC[C@H](Nc1ncnc2[nH]cnc12)c1nc2cccc(F)c2c(=O)n1-c1ccccc1 [Idelalisib] + CC1(C)CCC(c2ccc(Cl)cc2)=C(CN2CCN(c3ccc(C(=O)NS(=O)(=O)c4ccc(N[C@H](CCN5CCOCC5)CSc5ccccc5)c(S(=O)(=O)C(F)(F)F)c4)cc3)CC2)C1 [Navitoclax] (partner 0.5 µM)
Outline: as §1

Cell Line	relative viability (Pemetrexed + Decitabine; first compound 0.002 µM)	relative viability (Pemetrexed + Decitabine; first compound 0.006325 µM)	relative viability (Pemetrexed + Decitabine; first compound 0.02 µM)	relative viability (Pemetrexed + Decitabine; first compound 0.06325 µM)	relative viability (Pemetrexed + Decitabine; first compound 0.2 µM)	relative viability (Idelalisib + Vorinostat; first compound 0.04 µM)	relative viability (Idelalisib + Vorinostat; first compound 0.1265 µM)	relative viability (Idelalisib + Vorinostat; first compound 0.4 µM)	relative viability (Idelalisib + Vorinostat; first compound 1.265 µM)	relative viability (Idelalisib + Vorinostat; first compound 4 µM)	relative viability (Idelalisib + Trametinib; first compound 0.04 µM)	relative viability (Idelalisib + Trametinib; first compound 0.1265 µM)	relative viability (Idelalisib + Trametinib; first compound 0.4 µM)	relative viability (Idelalisib + Trametinib; first compound 1.265 µM)	relative viability (Idelalisib + Trametinib; first compound 4 µM)	relative viability (Idelalisib + Navitoclax; first compound 0.04 µM)	relative viability (Idelalisib + Navitoclax; first compound 0.1265 µM)	relative viability (Idelalisib + Navitoclax; first compound 0.4 µM)	relative viability (Idelalisib + Navitoclax; first compound 1.265 µM)	relative viability (Idelalisib + Navitoclax; first compound 4 µM)
SW 900	0.342	0.433	0.553	0.377	0.424	0.442	0.548	0.407	0.514	0.441	0.854	0.861	0.856	0.667	0.734	–	–	–	–	–
PC-3 [JPC-3]	0.765	0.845	0.956	0.837	0.857	1.04	0.952	0.841	0.86	0.747	0.721	0.69	0.724	0.607	0.496	0.912	0.892	0.795	0.668	0.679
NCI-H1703	–	–	–	–	–	–	–	–	–	–	–	–	–	–	–	1.15	1.05	0.922	1.13	0.501
EPLC-272H	0.348	0.377	0.413	0.33	0.296	0.422	0.405	0.431	0.292	0.452	0.311	0.291	0.254	0.257	0.216	1.08	1.14	1	1	0.959
NCI-H1792	0.506	0.532	0.527	0.507	0.56	–	–	–	–	–	0.487	0.522	0.271	0.56	0.267	0.464	0.587	0.617	0.667	0.645
NCI-H2085	0.584	0.513	0.53	0.527	0.642	0.794	0.788	0.702	0.614	0.484	0.569	0.299	0.382	0.369	0.327	1.23	1.16	0.951	0.938	0.764
LK-2	0.277	0.358	0.259	0.251	0.263	0.307	0.295	0.173	0.338	0.221	0.87	0.651	0.503	0.588	0.704	0.99	0.835	–	1.02	0.729
NCI-H1395	0.681	0.71	0.85	0.697	0.74	0.841	0.813	0.692	0.674	0.692	1.12	1	0.965	1.07	0.844	1.53	1.11	1.05	1.04	0.982
ABC-1	1.15	1.02	1.32	0.997	1.19	1.01	1.13	0.751	1.03	1.39	–	–	–	–	–	–	–	–	–	–
RERF-LC-KJ	0.609	0.753	0.801	0.721	0.415	0.826	0.754	0.725	0.697	0.512	0.84	0.912	0.804	0.936	0.66	0.922	0.951	0.884	0.792	0.638
